Laboratory results as given in patent US6083922A (priority 1997, dated 2000).
Values after ≈ are worked out from the molar mass of the structure shown. Values joined by “and” are separate entries in the source; they are usually repeats but may differ in a detail not shown here. Identical values can stand only once. Like-named read-outs stand apart in the source and are kept apart here.

How the values were obtained:
[1] = system: M. tuberculosis H37Rv(lux); test: Killing curve assay; type: cell-based, Mycobacterium tuberculosis
[2] = system: Drug-Sensitive Strains of M. tuberculosis; test: microbe, parasite or virus in culture; type: cell-based; details: Mycobacterium tuberculosis
[3] = type: physicochemical
[4] = cited from earlier work
[5] = Serum tobramycin concentrations following aerosol administration (Example 5); type: in vivo, human; details: for Serum Tobramycin: individual subjects
Experimental: (§1) The doses were separated by at least 2 days and not more than 5 days. Peak serum and sputum concentrations were assessed and results are seen in Tables 10 and 11.

P. aeruginosa = details: aerosolized 600 mg tid, cited from earlier work
[6] = Comparative characteristics of nebulizers delivering tobramycin
From the text: Both ultrasonic and jet nebulizers were studied.
An in vitro comparative study evaluated a variety of commercially available jet nebulizers, including among others, the Acorn II® by Marquest, T-Updraft® by Hudson, Sidestream® by Medicaid, and Pari LC® by Pari. The PulmoAide® compressor was chosen because of its reliability and widespread use.

[7] = Ultrasonic nebulizer delivery of tobramycin, effect of saline dilution (Example 2); details: for aerosolized output of tobramycin, MEAN: UltraAire, 60 mg/mL, 5 mL, 10 minutes
Experimental: This example describes testing performed to determine the effect of normal and quarter strength diluted saline on the aerosolization of tobramycin and on the amount of drug delivered over a ten-minute period.
To test output from a hand-held portable ultrasonic nebulizer, an UltraAirs by Omron was used. This ultrasonic nebulizer has a reusable medication cup that is placed over the ultrasonic crystal. […] After 10 minutes nebulization run, the cups were reweighed. The aerosolized output of tobramycin was determined from the difference between weight before and after the nebulization. Each solute was tested 14 times.

M. tuberculosis = test: Minimal inhibitory / bactericidal concentration of tobramycin, general statements; design: species or system Mycobacterium tuberculosis
[8] = Randomized cross-over study of nebulizers, peak sputum tobramycin
From the text: A randomized, cross-over study compared the ability of several nebulizers to deliver tobramycin by measuring peak sputum tobramycin concentrations in samples collected ten minutes after completion of the aerosol dose.

[9] = FEV1 change following aerosol administration (Example 5); type: in vivo, human; details: individual subjects, 300 mg, 30 min from completion
clinical = type: in vivo, human; details: for Sputum Tobramycin Concentrations: individual subjects, 300 mg in 5 mL 1/4 NS
Experimental: as §1

## NNC(=O)c1ccncc1 [isoniazid]
[1]; FIG. 4
  persistence of bactericidal activity: only temporary
[1]; isoniazid 0.06 μg/mL
  day growth of the bacteria resumed: 4 days
  day of initial sharp killing: 4 days
[1]; isoniazid 0.25 μg/mL
  day growth of the bacteria resumed: 7 days
  day of initial sharp killing: 1 days

## NC[C@H]1O[C@H](O[C@H]2[C@H](O)[C@@H](O[C@H]3O[C@H](CO)[C@@H](O)[C@H](N)[C@H]3O)[C@H](N)C[C@@H]2N)[C@H](N)C[C@@H]1O [tobramycin]
[2]; H37RV, read-out: Tobramycin MIC, strain H37RV
  MIC: 4 µg/mL (≈ 8.56 µM)
[2]; all tested drug sensitive strains, read-out: minimal inhibitory concentration
  MIC: 4 to 8 µg/mL (≈ 8.56 to 17.1 µM)
[2]; read-out: Tobramycin MIC, strain TN675
  MIC: 4 µg/mL (≈ 8.56 µM)
[2]; read-out: Tobramycin MIC, strain TN994
  MIC: 4 µg/mL (≈ 8.56 µM)
[2]; read-out: Tobramycin MIC, strain TN1008
  MIC: 4 µg/mL (≈ 8.56 µM)
[2]; read-out: Tobramycin MIC, strain TN1039
  MIC: 4 µg/mL (≈ 8.56 µM)
[2]; read-out: Tobramycin MIC, strain TN2351
  MIC: 8 µg/mL (≈ 17.1 µM)
[2]; read-out: Tobramycin MIC, strain TN2524
  MIC: 4 µg/mL (≈ 8.56 µM)
[2]; read-out: Tobramycin MIC, strain TN3183
  MIC: 4 µg/mL (≈ 8.56 µM)
[2]; read-out: Tobramycin MIC, strain TN3979
  MIC: 4 µg/mL (≈ 8.56 µM)
[2]; read-out: Tobramycin MIC, strain TN4259
  MIC: 4 µg/mL (≈ 8.56 µM)
[3]; 60 mg/mL, 40° C., pH 7.0, after 35 days
  color of the solution: yellowing of the solution
[3]; pH greater than 7.0
  degradation of tobramycin: degradation of tobramycin occurs
[4]
  maximum safe concentration in the serum: 8 to 10 µg/mL
  recommended peak therapeutic serum concentrations: 8 to 10 µg/mL
[5]; 300 mg aerosol, because of serum concentrations
  safety of the dosage: extremely safe
[5]; 300 mg in 5 mL of 60 mg/mL in 1/4 NS
  serum concentrations: < 1600 ng/mL
[5]; Pari LC, 300 mg in 5 mL 1/4 NS, 1 hour from completion, 60 min
  Serum Tobramycin: 0.2 µg/mL and 0.5 µg/mL and 0.6 µg/mL and 0.8 µg/mL
[5]; Pari LC, 300 mg in 5 mL 1/4 NS, 2 hours from completion, 120 min
  Serum Tobramycin: 0.3 µg/mL and 0.4 µg/mL and 0.5 µg/mL and 0.7 µg/mL
[5]; Pari LC, 300 mg, baseline
  Serum Tobramycin: not detected
[5]; Sidestream, 300 mg in 5 mL 1/4 NS, 1 hour from completion, 60 min
  Serum Tobramycin: 0.3 µg/mL and 0.2 µg/mL and 0.9 µg/mL and 1.2 µg/mL and 1.6 µg/mL
[5]; Sidestream, 300 mg in 5 mL 1/4 NS, 2 hours from completion, 120 min
  Serum Tobramycin: 0.2 µg/mL and 0.8 µg/mL and 1.0 µg/mL
[5]; Sidestream, 300 mg, baseline
  Serum Tobramycin: not detected
P. aeruginosa; 71 CF patients
  spirometry: improved spirometry
  sputum density of P. aeruginosa: significant reduction in sputum density of P. aeruginosa
P. aeruginosa
  safety and efficacy in CF patients: both safe and efficacious
[6]; DeVilbiss 99, 20 mg/mL in 1/2 NS
  MMAD: 4-5 microns
[6]; DeVilbiss 99, 20 mg/mL in 1/2 NS, 30 mL
  Time to Nebulize: 10 to 12 min
[6]; DeVilbiss 99, 20 mg/mL in 1/2 NS, total dose 600 mg
  Drug Dose/mL: 33 ± 1.8 mg
[6]; DeVilbiss 99, 600 mg
  tobramycin delivered: 33 mg/mL
[6]; Pari LC
  particle size: 4.5 μ
[6]; Pari LC Plus
  particle sizes: 3.3 μ
[6]; Pari LC, 60 mg/mL in 1/4 NS
  MMAD: 4-5 microns
[6]; Pari LC, 60 mg/mL in 1/4 NS, 5 mL
  Time to Nebulize: 10 min
[6]; Pari LC, 60 mg/mL in 1/4 NS, total dose 300 mg
  Drug Dose/mL: 29 ± 5 mg
[6]; Sidestream
  particle size output: 2.2 μ
[6]; Sidestream, 60 mg/mL in 1/4 NS
  MMAD: ~ 2.2 microns
[6]; Sidestream, 60 mg/mL in 1/4 NS, 5 mL, time to sputtering of jet
  Time to Nebulize: ~ 13 minutes
[6]; Sidestream, 60 mg/mL in 1/4 NS, total dose 300 mg
  Drug Dose/mL: 30 ± 1.8 mg
[6]; all three nebulizers
  tobramycin delivered to the airways: about 30 mg/mL
[7]; 1/4 diluted saline versus full strength nondiluted saline
  amount of tobramycin delivered: Higher amount of tobramycin was delivered
[7]; diluted 0.22% NS
  aerosolized output of tobramycin, MEAN: 4.071
[7]; nondiluted 0.9% NS
  aerosolized output of tobramycin, MEAN: 3.636
[1]; 4 μg/mL
  time for which growth is prevented: about eight
[1]; 8 μg/mL
  day at which growth is seen to be inhibited: 7 days
[1]; 16 μg/mL
  day at which 2-log reduction is reached: four
[1]; 1-2 μg/mL
  bactericidal activity compared to growth control: bactericidal activity decreasing the count of M. tuberculosis
[1]; 8 and 16 μg/mL
  reduction of M. tuberculosis counts in vitro: more than 2 log
[1]; FIG. 4
  activity against M. tuberculosis H37Rv in vitro: potent activity
  persistence of bactericidal activity: continuous decrease and inhibition of M. tuberculosis growth
[1]; tobramycin 8 and 16 μg/mL, decreased from 10^6
  count of Mycobacterium tuberculosis after treatment: about 10^2 CFU
M. tuberculosis; Mycobacterium tuberculosis, in the lungs and sputum, read-out: concentration found to be bactericidal
  MBC: ≥ 8 µg/mL
M. tuberculosis; Mycobacterium tuberculosis, read-out: lowest systemic minimal inhibitory concentration
  MIC: ~8 µg/mL (≈ 17.1 µM)
M. tuberculosis; Mycobacterium tuberculosis, systemic administration, read-out: minimal inhibitory concentration which would need to be present in the systemic circulation
  MIC: 800 to 1000 µg/mL (≈ 1710 to 2140 µM)
M. tuberculosis; toward M. tuberculosis
  sputum concentrations providing bactericidal activity, in multiples of MIC: 10-100 times MIC
[8]; Pari LC, 60 mg/mL in 1/4 NS
  time to complete nebulization of all 5 mL: about ten
[8]; Pari LC, 60 mg/mL in 5 mL 1/4 NS
  mass median aerodynamic diameter: about 3.3 μm
[8]; human, in vivo, inhaled or intranasal, 300 mg
  Cmax at 10 min: ~679000 ng/g
[9]; Pari LC
  ± % change FEV1: -1.2% and 1.2% and -0.6% and -2% and -5%
[9]; Sidestream
  ± % change FEV1: -2.2% and 0.0% and -7.6% and -1%
clinical; human, sputum, inhaled or intranasal, mean, Pari LC, 300 mg, 10 min
  concentration at 10 min: 396000 ± 677000 ng/g
clinical; Pari LC, 10 min from completion, 10 min
  Sputum Tobramycin Concentrations: 1595.9 μg/gm and 764.2 μg/gm and 133.7 μg/gm and 166.5 μg/gm and 1395.6 μg/gm
clinical; Pari LC, 1 hour, 60 min
  Sputum Tobramycin Concentrations: 481.8 μg/gm and 231.8 μg/gm and 110.7 μg/gm and 32.4 μg/gm and 186.8 μg/gm
clinical; Pari LC, 2 hours, 120 min
  Sputum Tobramycin Concentrations: 416.8 μg/gm and 52.8 μg/gm and 92.5 μg/gm and 60.5 μg/gm and 131.8 μg/gm
clinical; Pari LC, baseline
  Sputum Tobramycin Concentrations: bql (<20 μg/gm)
clinical; Sidestream, 10 min from completion, 10 min
  Sputum Tobramycin Concentrations: 792.8 μg/gm and 460.6 μg/gm and 162.5 μg/gm and 84.2 μg/gm and 1135.9 μg/gm
clinical; Sidestream, 1 hour, 60 min
  Sputum Tobramycin Concentrations: 1026.7 μg/gm and 23.1 μg/gm and 180.5 μg/gm and 36.6 μg/gm and 488.2 μg/gm
clinical; Sidestream, 2 hours, 120 min
  Sputum Tobramycin Concentrations: 163 μg/gm and 49.1 μg/gm and 58.1 μg/gm and 57.5 μg/gm and 331.5 μg/gm
clinical; Sidestream, baseline
  Sputum Tobramycin Concentrations: bql (<20 μg/gm) and bqi
clinical; mean, Pari LC, 300 mg, 1 hour
  Sputum Tobramycin Concentrations, Mean/Std Dev: 186.8 μg/gm
clinical; mean, Pari LC, 300 mg, 2 hours
  Sputum Tobramycin Concentrations, Mean/Std Dev: 131.8 μg/gm
clinical; mean, Pari LC, baseline
  Sputum Tobramycin Concentrations, Mean/Std Dev: bql (<20 μg/gm)
clinical; mean, Sidestream, 300 mg, 10 min
  Sputum Tobramycin Concentrations, Mean/Std Dev: 527.21 ± 585.9 μg/gm
clinical; mean, Sidestream, 300 mg, 1 hour
  Sputum Tobramycin Concentrations, Mean/Std Dev: 488.2 μg/gm
clinical; mean, Sidestream, 300 mg, 2 hours
  Sputum Tobramycin Concentrations, Mean/Std Dev: 331.5 μg/gm
clinical; mean, Sidestream, baseline
  Sputum Tobramycin Concentrations, Mean/Std Dev: bql (<20 μg/gm)
